Experimental data from PubChem BioAssay AID248 (DTP/NCI, 2004).
“And” between values parts separate entries of the source, which are not always exact repeats. Equal values may be shown once. Inconclusive results and toxic doses are left out. Cut-off read from the data, not from the text of the source: active = T/C of 150% or more; inactive = T/C below 125%.

Test system: L1210 leukemia ip in BDF1 mice, survival T/C
Test: NCI In Vivo Anticancer Drug Screen. Data for tumor model L1210 Leukemia (intraperitoneal) in B6D2F1 (BDF1) mice
Conditions: endpoint: mean survival time, higher = longer survival
How it was run: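 Mice bearing the transplanted tumor received compound or vehicle. Survival of the treated group was divided by that of the vehicle-treated control group to give the ratio.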

[1] = dose: 100.0 mg/kg/injection, schedule: Q01DX009 (ip), vehicle: Klucel (hydroxypropylcellulose) (HPC)
[2] = dose: 100.0 mg/kg/injection, schedule: Q04DX003 (ip), vehicle: Klucel (hydroxypropylcellulose) (HPC)
[3] = dose: 200.0 mg/kg/injection, schedule: Q01DX009 (ip), vehicle: Klucel (hydroxypropylcellulose) (HPC)
[4] = dose: 200.0 mg/kg/injection, schedule: Q04DX003 (ip), vehicle: Klucel (hydroxypropylcellulose) (HPC)
[5] = dose: 400.0 mg/kg/injection, schedule: Q01DX009 (ip), vehicle: Klucel (hydroxypropylcellulose) (HPC)
[6] = dose: 50.0 mg/kg/injection, schedule: Q01DX001 (ip), vehicle: saline
[7] = dose: 100.0 mg/kg/injection, schedule: Q01DX001 (ip), vehicle: saline
[8] = dose: 200.0 mg/kg/injection, schedule: Q01DX001 (ip), vehicle: saline
[9] = dose: 400.0 mg/kg/injection, schedule: Q01DX001 (ip), vehicle: saline
[10] = dose: 50.0 mg/kg/injection, schedule: Q04DX003 (ip), vehicle: Klucel (hydroxypropylcellulose) (HPC)
[11] = dose: 100.0 mg/kg/injection, schedule: Q04DX002 (ip), vehicle: Klucel (hydroxypropylcellulose) (HPC)
[12] = dose: 200.0 mg/kg/injection, schedule: Q04DX002 (ip), vehicle: Klucel (hydroxypropylcellulose) (HPC)
[13] = dose: 400.0 mg/kg/injection, schedule: Q04DX002 (ip), vehicle: Klucel (hydroxypropylcellulose) (HPC)
[14] = dose: 100.0 mg/kg/injection, schedule: Q01DX009 (ip), vehicle: other
[15] = dose: 200.0 mg/kg/injection, schedule: Q01DX009 (ip), vehicle: other
[16] = dose: 100.0 mg/kg/injection, schedule: Q01DX001 (ip), vehicle: Klucel (hydroxypropylcellulose) (HPC)
[17] = dose: 200.0 mg/kg/injection, schedule: Q01DX001 (ip), vehicle: Klucel (hydroxypropylcellulose) (HPC)
[18] = dose: 100.0 mg/kg/injection, schedule: Q04DX003 (ip), vehicle: saline
[19] = dose: 200.0 mg/kg/injection, schedule: Q04DX003 (ip), vehicle: saline
[20] = dose: 400.0 mg/kg/injection, schedule: Q04DX003 (ip), vehicle: saline

Measured: T/C

C(=C/[PH+](c1ccccc1)c1ccccc1)/[PH+](c1ccccc1)c1ccccc1.C(=C/[PH+](c1ccccc1)c1ccccc1)/[PH+](c1ccccc1)c1ccccc1.[O-][Cl+3]([O-])([O-])O.[Rh]
inactive: dose: 100.0 mg/kg/injection, schedule: Q01DX001 (ip), vehicle: saline with Tween-80 92 % of control | dose: 400.0 mg/kg/injection, schedule: Q01DX001 (ip), vehicle: saline with Tween-80 89 % of control

CCCCCCCCCCCCCCCCn1/c(=N/N=C/c2ccccc2S(=O)(=O)O)sc2ccccc21
inactive: [1] 106 % of control | [2] 113 % of control | [3] 112 % of control | [4] 106 % of control | [5] 105 % of control | dose: 400.0 mg/kg/injection, schedule: Q04DX003 (ip), vehicle: Klucel (hydroxypropylcellulose) (HPC) 116 % of control

COc1cc2c(cc1O)C(=O)CCC(C(=O)O)=C2
inactive: dose: 50.0 mg/kg/injection, schedule: Q01DX009 (ip), vehicle: saline with Tween-80 93 % of control | dose: 100.0 mg/kg/injection, schedule: Q01DX009 (ip), vehicle: saline with Tween-80 107 % of control | dose: 200.0 mg/kg/injection, schedule: Q01DX009 (ip), vehicle: saline with Tween-80 96 % of control

Cc1ccc(C(c2ccc(C)c(C)c2)C(c2ccc(C)c(C)c2)C(O)C(O)C(O)CO)cc1C (configuration not stated)
inactive: [6] 93 % of control | [7] 106 % of control | [8] 98 % of control | [9] 98 % of control

COC(=O)C1=C(C(=O)OC)C2C=CC1C1(C)C(=O)N(C)C21C (configuration not stated)
inactive: dose: 75.0 mg/kg/injection, schedule: Q04DX002 (ip), vehicle: Klucel (hydroxypropylcellulose) (HPC) 90 % of control | dose: 300.0 mg/kg/injection, schedule: Q04DX002 (ip), vehicle: Klucel (hydroxypropylcellulose) (HPC) 86 % of control

CCCCCCCCCCCCOCCCN
inactive: dose: 12.5 mg/kg/injection, schedule: Q01DX009 (ip), vehicle: saline with Tween-80 98 % of control | dose: 12.5 mg/kg/injection, schedule: Q04DX003 (ip), vehicle: saline with Tween-80 92 % of control | dose: 25.0 mg/kg/injection, schedule: Q01DX009 (ip), vehicle: saline with Tween-80 90 % of control | dose: 25.0 mg/kg/injection, schedule: Q04DX003 (ip), vehicle: saline with Tween-80 90 % of control | dose: 50.0 mg/kg/injection, schedule: Q04DX003 (ip), vehicle: saline with Tween-80 92 % of control

O=C(O)C1(O)C(Cl)(Cl)C(Cl)=C(Cl)C1(Cl)Cl
inactive: dose: 50.0 mg/kg/injection, schedule: Q01DX009 (ip), vehicle: saline sonified 103 % of control | [10] 92 % of control | dose: 100.0 mg/kg/injection, schedule: Q01DX009 (ip), vehicle: saline sonified 105 % of control | [2] 97 % of control and 100 % of control | [4] 111 % of control

Cc1sc2ccccc2[n+]1CCCCS(=O)(=O)O
inactive: [7] 92 % of control | [8] 97 % of control | [9] 97 % of control

Cc1ccc(CNC(=O)Nc2ccccc2Cl)c(C)c1
inactive: [11] 105 % of control | [12] 97 % of control | [13] 97 % of control

O=C(O)C(Sc1ccc(Cl)cc1)Sc1ccc(Cl)cc1
inactive: [10] 103 % of control | [2] 103 % of control | [4] 95 % of control

CCN(CC)c1ccc(N=Nc2cc(Cl)ccc2Cl)c(NC(=O)CSC(C)=O)c1
inactive: [1] 110 % of control | [3] 101 % of control | [5] 97 % of control

CCCCN=C(NCCCC)OC1CCCCC1
inactive: dose: 11.1 mg/kg/injection, schedule: Q01DX Z (ip), vehicle: saline 98 % of control | dose: 16.6 mg/kg/injection, schedule: Q01DX Z (ip), vehicle: saline 100 % of control | dose: 25.0 mg/kg/injection, schedule: Q01DX Z (ip), vehicle: saline 102 % of control

CN(C)P(N(C)C)N(C)C
inactive: [6] 104 % of control | [7] 95 % of control | [8] 93 % of control | [9] 101 % of control

CCCCCCCCCCCCCCCCCC(CCCCCCCCCCCCCCCCC)=NNC(N)=S
inactive: [14] 92 % of control | [15] 89 % of control | dose: 400.0 mg/kg/injection, schedule: Q01DX009 (ip), vehicle: other 97 % of control

COc1ccc(-c2ccc(C(C)=O)cc2)cc1
inactive: [11] 90 % of control | [12] 100 % of control | [13] 100 % of control

COc1ccc(NC(C)=O)cc1
inactive: [16] 107 % of control | [17] 100 % of control | dose: 400.0 mg/kg/injection, schedule: Q01DX001 (ip), vehicle: Klucel (hydroxypropylcellulose) (HPC) 103 % of control

CCCCCCCCC(=O)N1CCN(C)CC1
inactive: dose: 100.0 mg/kg/injection, schedule: Q04DX002 (ip), vehicle: saline 103 % of control

O=C(Nc1cc(C(F)(F)F)ccc1Cl)Nc1cc(Cl)c(Oc2ccc(Cl)cc2)cc1S(=O)(=O)O
inactive: dose: 100.0 mg/kg/injection, schedule: Q04DX003 (ip), vehicle: saline sonified 105 % of control | dose: 200.0 mg/kg/injection, schedule: Q04DX003 (ip), vehicle: saline sonified 100 % of control

CCN(CC)CCc1ccccn1
inactive: dose: 12.5 mg/kg/injection, schedule: Q01DX009 (ip), vehicle: saline 98 % of control | dose: 25.0 mg/kg/injection, schedule: Q01DX009 (ip), vehicle: saline 100 % of control | dose: 25.0 mg/kg/injection, schedule: Q04DX003 (ip), vehicle: saline 106 % of control | dose: 50.0 mg/kg/injection, schedule: Q01DX009 (ip), vehicle: saline 100 % of control | dose: 50.0 mg/kg/injection, schedule: Q04DX003 (ip), vehicle: saline 103 % of control

COC(=O)C(COS(=O)(=O)c1ccccc1)NC(=O)OCc1ccccc1 (configuration not stated)
inactive: dose: 100.0 mg/kg/injection, schedule: Q01DX009 (ip), vehicle: saline 100 % of control | [18] 92 % of control | dose: 200.0 mg/kg/injection, schedule: Q01DX009 (ip), vehicle: saline 98 % of control | [19] 97 % of control | dose: 400.0 mg/kg/injection, schedule: Q01DX009 (ip), vehicle: saline 96 % of control | [20] 95 % of control

OCC(c1ccccc1)[P+](c1ccccc1)(c1ccccc1)c1ccccc1 (configuration not stated)
inactive: dose: 5.0 mg/kg/injection, schedule: Q01DX001 (ip), vehicle: saline 94 % of control | dose: 10.0 mg/kg/injection, schedule: Q01DX001 (ip), vehicle: saline 97 % of control | dose: 20.0 mg/kg/injection, schedule: Q01DX001 (ip), vehicle: saline 103 % of control | dose: 40.0 mg/kg/injection, schedule: Q01DX001 (ip), vehicle: saline 97 % of control | dose: 80.0 mg/kg/injection, schedule: Q01DX001 (ip), vehicle: saline 97 % of control

COc1ccc2c(c1)CCC1C2CCC2C(O)CCCC21 (configuration not stated)
inactive: dose: 50.0 mg/kg/injection, schedule: Q01DX001 (ip), vehicle: Klucel (hydroxypropylcellulose) (HPC) 95 % of control | [16] 93 % of control | [17] 87 % of control

Nc1ccc(OCc2ccc(S(=O)(=O)F)c(Cl)c2)c(Cl)c1
inactive: [14] 91 % of control | [18] 93 % of control | [15] 92 % of control | [19] 95 % of control | [20] 98 % of control
